# Test results published in ChEMBL document CHEMBL1201862, “PubChem BioAssay data set” (2004).
# The source made the active and inactive calls.
# Tests used:
# [1] = molecular target: Aspartyl aminopeptidase (Plasmodium falciparum 3D7, UniProt Q8I2J3); experiment: Counterscreen for inhibitors of M1 and M17 aminopeptidases: QFRET-based biochemical high throughput dose response assay for inhibitors of the Plasmodium falciparum M18 Aspartyl Aminopeptidase (PFM18AAP). [Related PubChem assays: 1619 (Screening assay (M17LAP inhibitors).), 1445 (Screening assay (M1AAP inhibitors).)]
# Chain of Aspartyl aminopeptidase (Q8I2J3 whole entry): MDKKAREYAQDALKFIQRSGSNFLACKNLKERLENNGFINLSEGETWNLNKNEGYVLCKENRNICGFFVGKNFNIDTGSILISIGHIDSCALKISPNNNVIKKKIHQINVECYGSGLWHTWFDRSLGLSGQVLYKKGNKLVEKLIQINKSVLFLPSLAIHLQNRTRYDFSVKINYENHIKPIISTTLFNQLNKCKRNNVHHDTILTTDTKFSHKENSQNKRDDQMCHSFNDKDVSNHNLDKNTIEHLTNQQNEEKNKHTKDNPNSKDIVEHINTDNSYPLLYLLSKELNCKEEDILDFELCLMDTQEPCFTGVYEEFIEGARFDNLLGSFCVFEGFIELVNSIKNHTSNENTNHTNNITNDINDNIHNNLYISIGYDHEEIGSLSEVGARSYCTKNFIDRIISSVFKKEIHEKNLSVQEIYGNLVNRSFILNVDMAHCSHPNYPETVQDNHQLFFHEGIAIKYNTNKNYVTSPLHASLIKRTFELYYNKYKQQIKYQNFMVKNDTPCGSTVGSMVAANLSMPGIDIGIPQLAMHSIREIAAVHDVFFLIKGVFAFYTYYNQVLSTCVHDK
# [2] = molecular target: T1, Aminopeptidase N (Plasmodium falciparum FcB1/Columbia, UniProt O96935); experiment: malaria alanyl aminopeptidase activity blockers – biochemical, fluorogenic H-Leu-NHMec substrate, 1536-well (AID 1445); parameters: species or system Plasmodium falciparum 3D7, 3D7
# T1 sequence (O96935 whole entry): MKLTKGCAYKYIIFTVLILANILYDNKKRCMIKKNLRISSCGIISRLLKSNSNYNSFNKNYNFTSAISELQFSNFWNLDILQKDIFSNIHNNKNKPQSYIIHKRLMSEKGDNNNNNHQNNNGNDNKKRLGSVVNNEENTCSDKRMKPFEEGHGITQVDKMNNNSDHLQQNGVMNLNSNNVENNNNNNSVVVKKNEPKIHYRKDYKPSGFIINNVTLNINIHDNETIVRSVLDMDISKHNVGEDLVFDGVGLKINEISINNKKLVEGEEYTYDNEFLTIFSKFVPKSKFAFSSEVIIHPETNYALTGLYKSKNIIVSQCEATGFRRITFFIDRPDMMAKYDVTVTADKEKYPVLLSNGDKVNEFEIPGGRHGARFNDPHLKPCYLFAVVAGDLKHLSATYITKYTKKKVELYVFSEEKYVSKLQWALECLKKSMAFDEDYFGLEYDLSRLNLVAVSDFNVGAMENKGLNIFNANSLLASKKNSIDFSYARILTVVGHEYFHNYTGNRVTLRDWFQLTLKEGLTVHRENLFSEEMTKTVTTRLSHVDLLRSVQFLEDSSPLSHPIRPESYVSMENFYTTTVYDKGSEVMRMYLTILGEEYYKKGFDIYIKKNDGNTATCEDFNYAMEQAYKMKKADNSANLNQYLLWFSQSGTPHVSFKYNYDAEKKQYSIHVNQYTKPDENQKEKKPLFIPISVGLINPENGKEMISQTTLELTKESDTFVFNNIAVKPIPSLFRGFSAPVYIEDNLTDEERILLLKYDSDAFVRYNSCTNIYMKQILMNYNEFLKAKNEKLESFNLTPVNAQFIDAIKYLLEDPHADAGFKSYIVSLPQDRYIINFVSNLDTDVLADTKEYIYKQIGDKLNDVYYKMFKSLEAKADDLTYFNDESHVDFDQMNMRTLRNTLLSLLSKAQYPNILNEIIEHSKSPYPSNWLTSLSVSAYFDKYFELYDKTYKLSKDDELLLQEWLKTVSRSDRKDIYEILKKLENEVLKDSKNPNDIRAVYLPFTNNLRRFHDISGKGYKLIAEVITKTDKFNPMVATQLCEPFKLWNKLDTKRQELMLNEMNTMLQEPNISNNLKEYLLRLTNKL
# [3] = molecular target: Procathepsin L (Homo sapiens, UniProt P07711); experiment: CTSL1 protease inhibition – biochemical, QFRET, 1536-well, counter-screen for M1/M17 aminopeptidase inhibitor project, dose response (AID 2214)
# Chain of Procathepsin L (P07711 whole entry): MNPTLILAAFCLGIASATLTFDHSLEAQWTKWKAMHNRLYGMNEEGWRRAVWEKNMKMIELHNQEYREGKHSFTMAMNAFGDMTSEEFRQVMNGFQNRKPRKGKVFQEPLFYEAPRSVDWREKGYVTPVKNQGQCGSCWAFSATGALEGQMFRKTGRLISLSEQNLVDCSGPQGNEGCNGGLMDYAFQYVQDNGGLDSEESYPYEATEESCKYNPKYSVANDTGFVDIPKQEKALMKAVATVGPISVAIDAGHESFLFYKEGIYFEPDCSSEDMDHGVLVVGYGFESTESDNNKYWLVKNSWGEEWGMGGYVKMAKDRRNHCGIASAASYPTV
# [4] = molecular target: Glyceraldehyde-3-phosphate dehydrogenase (Homo sapiens, UniProt P04406)
# Chain of Glyceraldehyde-3-phosphate dehydrogenase (P04406 whole entry): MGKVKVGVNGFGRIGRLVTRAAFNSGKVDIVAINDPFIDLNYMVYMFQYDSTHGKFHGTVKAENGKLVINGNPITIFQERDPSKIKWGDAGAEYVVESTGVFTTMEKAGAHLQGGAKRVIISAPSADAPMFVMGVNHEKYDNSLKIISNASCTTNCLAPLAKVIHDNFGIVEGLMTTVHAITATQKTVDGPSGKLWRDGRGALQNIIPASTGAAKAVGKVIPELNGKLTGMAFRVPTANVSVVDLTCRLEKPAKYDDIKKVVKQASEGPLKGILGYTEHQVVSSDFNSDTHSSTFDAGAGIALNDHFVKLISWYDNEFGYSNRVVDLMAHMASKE
# [5] = molecular target: T2, Bcl-2-related protein A1 (Mus musculus, UniProt Q07440); experiment: small-molecule antagonists of Bfl-1/BH3 interaction – biochemical, TR-FRET, mouse Bfl-1, confirmation (AID 621);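 also: TR-FRET binding of GST-Bfl-1 to FITC-labelled Bid peptide via terbium antibody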
# T2 sequence (Q07440 whole entry): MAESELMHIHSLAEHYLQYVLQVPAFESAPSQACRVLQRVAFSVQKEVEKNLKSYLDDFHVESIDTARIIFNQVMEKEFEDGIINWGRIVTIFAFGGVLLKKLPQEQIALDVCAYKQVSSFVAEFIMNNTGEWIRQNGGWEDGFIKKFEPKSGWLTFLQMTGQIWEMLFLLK
# [6] = molecular target: T2, Bcl-2-related protein A1; experiment: Bfl-1 binding inhibitors, SAR follow-up, biochemical, fluorescence polarization (AID 1070)
# [7] = luciferase reporter signal suppression in cells – H4 neuroglioma cells, luminescence, dose response (AID 1990); assay type: functional, cell-based
# [8] = molecular target: T3, Neuropeptide Y receptor type 2 (Homo sapiens, UniProt P49146); experiment: IC50 for human NPY-Y2 blockade – cell-based, counter-screen for NPY-Y1 antagonist project, dose response (AID 1278); assay type: functional
# T3 sequence (P49146 whole entry): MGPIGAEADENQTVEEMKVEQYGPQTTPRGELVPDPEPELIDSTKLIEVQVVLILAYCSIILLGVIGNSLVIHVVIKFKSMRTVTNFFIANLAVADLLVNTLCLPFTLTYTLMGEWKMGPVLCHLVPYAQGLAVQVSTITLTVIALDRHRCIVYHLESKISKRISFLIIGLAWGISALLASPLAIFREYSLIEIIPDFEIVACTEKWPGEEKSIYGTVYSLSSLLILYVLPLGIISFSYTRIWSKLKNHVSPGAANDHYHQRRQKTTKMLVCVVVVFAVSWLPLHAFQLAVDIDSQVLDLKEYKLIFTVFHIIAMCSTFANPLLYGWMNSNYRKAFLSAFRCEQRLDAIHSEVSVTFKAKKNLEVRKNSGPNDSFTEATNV
# [9] = Luminescence Cell-Based Dose Response HTS to Identify Inhibitors of 5'UTR Stem-Loop Driven Prion Protein mRNA Translation in H4 Neuroglioblastoma Cells. [Related pubchem assays: 1827 (Project Summary), 1813 (Primary HTS)]; assay type: functional
# [10] = alpha-synuclein stem-loop luciferase translation blockers – H4 neuroglioma cells, luminescence, confirmation (AID 1988); assay type: functional, cell-based
# [11] = molecular target: T4, Neuropeptide Y receptor type 1 (Homo sapiens, UniProt P25929); experiment: IC50 of human NPY-Y1 blockers – cell-based, dose response (AID 1277); assay type: functional
# T4 sequence (P25929 whole entry): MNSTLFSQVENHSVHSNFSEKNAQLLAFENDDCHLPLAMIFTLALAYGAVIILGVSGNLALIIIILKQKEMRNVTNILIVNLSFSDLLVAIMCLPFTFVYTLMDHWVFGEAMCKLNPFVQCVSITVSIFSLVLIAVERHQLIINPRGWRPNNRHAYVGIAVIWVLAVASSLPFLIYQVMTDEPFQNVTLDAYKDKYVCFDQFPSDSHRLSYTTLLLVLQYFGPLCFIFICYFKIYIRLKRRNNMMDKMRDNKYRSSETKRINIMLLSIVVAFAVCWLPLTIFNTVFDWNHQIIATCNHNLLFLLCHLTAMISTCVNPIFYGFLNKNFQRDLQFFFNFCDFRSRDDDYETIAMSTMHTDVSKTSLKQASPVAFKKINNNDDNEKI
# [12] = Trypanosoma cruzi growth suppression in host cells – NIH3T3 host cells, beta-gal luminescence, confirmation (AID 2044); assay type: functional, cell-based;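 also: intracellular parasites grown in NIH/3T3 mouse fibroblasts as host cells; luminescent beta-galactosidase reporter signal from transgenic T. cruzi replicating inside host cells; inhibitors lower the luminescence signal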
# [13] = NIH3T3 cell viability loss – ATP luminescence, mouse fibroblasts, counter-screen, dose response (AID 2010); assay type: functional, cell-based;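 also: cells exposed to compound for about 90 hours before reading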
# [14] = system: Jurkat; experiment: blockers of NF-kB activation in T cells – Jurkat, luciferase reporter, luminescence, B- and T-cell, dose response (AID 489004); assay type: functional, cell-based; details: Homo sapiens;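 also: NF-kB luciferase reporter Jurkat cells stimulated with PMA plus ionomycin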
# [15] = HEK-293T viability loss, compound-treated – cell-based, uHTS hits, cytotoxicity control for B/T-cell NF-kB inhibitor project, dose response (AID 489019); assay type: functional;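 also: IC50 reflects cytotoxicity as loss of cell viability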
# [16] = system: INS1; experiment: INS-1E survival protection against cytokine death – cell-based, luminescence, retest, dose response (AID 449756); assay type: functional; details: Rattus norvegicus;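 also: cell death triggered by IL-1 beta plus TNF-alpha plus IFN-gamma mixture; protective hits raise ATP signal compared with cytokine alone wells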
# [17] = blockers of HIV-1 envelope-mediated cell-cell fusion – cherry-pick, dose response (AID 652057); assay type: functional, cell-based
# [18] = molecular target: Galanin receptor type 3 (Homo sapiens, UniProt O60755); experiment: Fluorescence-based cell-based primary high throughput dose response assay to identify antagonists of the Galanin Receptor 3 (GalR3).; assay type: functional
# Chain of Galanin receptor type 3 (O60755 whole entry): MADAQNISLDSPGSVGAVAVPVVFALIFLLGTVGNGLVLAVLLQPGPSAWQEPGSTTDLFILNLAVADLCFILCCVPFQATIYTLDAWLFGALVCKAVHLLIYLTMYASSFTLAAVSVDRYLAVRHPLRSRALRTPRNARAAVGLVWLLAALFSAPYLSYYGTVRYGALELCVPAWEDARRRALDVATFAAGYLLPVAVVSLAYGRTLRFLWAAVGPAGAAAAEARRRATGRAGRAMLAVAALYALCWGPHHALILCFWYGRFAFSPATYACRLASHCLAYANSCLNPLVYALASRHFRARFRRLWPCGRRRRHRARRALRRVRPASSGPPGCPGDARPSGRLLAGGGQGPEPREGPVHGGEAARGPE
# [19] = cells; assay type: functional, cell-based; details: HEK-CNG
# [20] = viability loss in CEM21 cells – cell-based, CellTiter-Glo luminescence, cherry-picked, cytotoxicity control for viral fusion inhibitor project, dose response (AID 652042); assay type: functional;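 also: potency for signal decrease meaning cytotoxicity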
# [21] = blockers of HIV-1 ZM109 envelope-driven cell-cell fusion – HeLa effector, CEM target cells, luciferase, cherry-pick, dose response (AID 652058); assay type: functional, cell-based;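 also: luciferase signal from HIV-1 Env mediated cell-cell fusion of effector and target cells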
# [22] = off-target signal loss in HeLa-CEM21 co-culture – HeLa F-luc CTL cells, cherry-picked, counter-screen for HIV-1 Env fusion inhibitor project, dose response (AID 652040); assay type: functional, cell-based;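 also: potency for signal decrease marking cytotoxic or nonspecific inhibition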
# [23] = HIV-1 AD8 envelope cell-cell fusion blockers – cherry-pick, dose response (AID 652062); assay type: functional, cell-based;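 also: luciferase signal from cell-cell fusion driven by HIV-1 clade B AD8 Env; potency is for inhibitors of fusion seen as a drop in luminescence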
# [24] = molecular target: T5, COUP transcription factor 2 (Homo sapiens, UniProt P24468); experiment: Luminescence-based cell-based high throughput dose response assay to identify inhibitors of COUP-TFII (NR2F2).; assay type: functional;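 also: HEK293 cells transiently cotransfected with COUP-TFII expression vector and reporter; luciferase reporter luminescence driven by COUP-TFII from the pX2-168 reporter plasmid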
# T5 sequence (P24468 whole entry): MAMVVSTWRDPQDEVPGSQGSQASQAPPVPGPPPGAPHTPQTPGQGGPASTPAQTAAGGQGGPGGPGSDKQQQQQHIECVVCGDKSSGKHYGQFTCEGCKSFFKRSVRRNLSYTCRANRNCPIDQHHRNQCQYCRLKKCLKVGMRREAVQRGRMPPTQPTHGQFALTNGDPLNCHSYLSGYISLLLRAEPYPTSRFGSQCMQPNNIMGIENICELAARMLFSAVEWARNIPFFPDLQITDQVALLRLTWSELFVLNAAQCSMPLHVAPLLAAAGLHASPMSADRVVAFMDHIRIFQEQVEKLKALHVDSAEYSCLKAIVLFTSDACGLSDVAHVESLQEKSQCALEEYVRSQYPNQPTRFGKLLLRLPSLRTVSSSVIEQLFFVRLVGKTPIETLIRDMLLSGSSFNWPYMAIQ
# [25] = cells
# [26] = Luminescence Cell-Based Dose Response to Identify Activators of 5'UTR Stem-Loop Driven Prion Protein mRNA Translation in H4-C Neuroglioblastoma Cells. [Related pubchem assays: 1829 (Project Summary), 1814 (Primary HTS)]; assay type: functional
# [27] = Luminescence Cell-Based Dose Confirmation HTS to Identify Activators of 5'UTR Stem-Loop Driven Alpha-Synuclein mRNA Translation in H4 Neuroglioblastoma Cells. [Related pubchem assays: 1829 (Project Summary), 1814 (Primary HTS)]; assay type: functional
# [28] = Luminescence Cell-Based Dose Response HTS to Identify Activators of Luciferase Translation or Activity in H4 […] Cells. [Related pubchem assays: 1829 (Project Summary), 1814 (Primary HTS)]; assay type: functional
# [29] = system: H4; experiment: Luminescence Cell-Based Dose Response HTS to Identify Activators of 5'UTR Stem-Loop Driven Prion Protein mRNA Translation in H4 Neuroglioblastoma Cells. [Related pubchem assays: 1829 (Project Summary), 1814 (Primary HTS)]; assay type: functional; details: Homo sapiens
# [30] = Luminescence Cell-Based Dose Response to Identify Activators of Luciferase Translation or Activity in H4-C Neuroglioblastoma Cells. [Related pubchem assays: 1829 (Project Summary), 1814 (Primary HTS)]; assay type: functional
# [31] = Luminescence Cell-Based Dose Confirmation to Identify Activators of 5'UTR Stem-Loop Driven Alpha-Synuclein mRNA Translation in H4 Neuroglioblastoma Cells. [Related pubchem assays: 1829 (Project Summary), 1814 (Primary HTS)]; assay type: functional
# [32] = system: HeLa; experiment: ATP-based viability loss in HeLa cells – cell-based, CellTiter-Glo luminescence, cherry-pick samples, cytotoxicity control for MITF activator project, dose response (AID 540259); assay type: functional; details: Homo sapiens
compound,measurement,setting,value
COc1ccc(C2CC(c3c(-c4ccccc4)c4cc(Cl)ccc4[nH]c3=O)=NN2C(=O)CCC(=O)O)cc1 (configuration not stated),IC50,[1],> 73.5 µM (not active)
same,IC50,[2],4.93 µM (active)
same,IC50,[3],> 59.6 µM (not active)
Cc1ccc(Cl)c(N2C(=O)C(Cl)=C(Cl)C2=O)c1Cl,IC50,[4],> 100 µM (not active)
same,IC50,[5],20.1 µM (active)
same,IC50,[6],> 100 µM (not active)
CCCCCCn1c2c(c(=N)c3c1CCC3)CCC2,EC50,[7],8.02 µM (active)
same,IC50,[8],14.6 µM (not active)
same,EC50,[9],14.3 µM (active)
same,EC50,[10],6.52 µM (active)
same,IC50,[11],8.75 µM (active)
same,EC50,[12],< 0.1 µM (active)
same,EC50,[13],> 60 µM (not active)
same,IC50,[14],7.15 µM (active)
same,IC50,[15],> 80 µM (inactive)
same,AC50,[16],2.04 µM (active)
same,AC50,[17],6.91 µM (active)
same,IC50,[18],8.41 µM (active)
same,EC50,[19],> 29.9 µM (inactive)
same,AC50,[20],3.33 µM (active)
same,AC50,[21],0.949 µM (active)
same,AC50,[22],> 70 µM (inactive)
same,AC50,[23],3.19 µM (active)
same,IC50,[24],3.52 µM (active)
same,EC50,[25],0.007 µM (active)
COc1cccc(/C(C)=N/N=C(\C)c2cccc(OC)c2)c1,EC50,[26],1.47 µM (active)
same,EC50,[27],< 0.1 µM (active)
same,EC50,[28],0.488 µM (active)
same,EC50,[29],38.7 µM (active)
same,EC50,[30],0.36 µM (active)
same,EC50,[31],0.419 µM (active)
same,AC50,[32],64.5 µM (active)
